The test system of assay [1] is mouse ear edema induced by PMA (phorbol myristate acetate). Put plainly: Acute contact dermatitis: TPA-induced auricular edema. The class given is in vivo, CD1 mice. The following applies: 500 μg/ear topical in TPDS, 30 min before TPA 0.01%, sacrifice 6 h later. The procedure:
Groups of 5-6 CD1 mice (18-24 g) were used. • Administration of the Compounds All the macrolide derivatives were dissolved in Trans-phase Delivery System (TPDS), a vehicle containing benzyl alcohol 10%, acetone 40% and isopropanol 50%. 15 microliters of the compounds (500 μg), dissolved in TPDS, were applied topically to the internal surface of one ear; 30 minutes later, 12 microliters of a solution of tetradecanoyl phorbol acetate (TPA) at a concentration of 0.01% dissolved in acetone, were applied to the same area. Six hours later, the animals were sacrificed by inhalation of CO2. • Evaluation of the Results Two methods were used for assessing the auricular edema: • a) Weighing a defined portion of auricular pinna. • b) Measurement of auricular thickness using precision spring calipers. The degree of edema was calculated by subtracting the weight or the thickness of the untreated ear from that of the treated contralateral ear. To determine the degree of remission of the edema, the difference (weight or thickness) of the groups treated with TPA+macrolides relative to those treated with just TPA was compared. The activity of the macrolides was measured using the modified method of Zunic et al. (1998): MDL (Lysyl) GDP, a non-toxil muramyl dipeptide derivative inhibits cytokine production by activated macrophages and protects mice from phorbol ester- and oxazolone-induced inflammation (J. Invest. Dermatol., 111 (1), 77-82). The data relating to erythromycin and azithromycin refer to treatment in a single dose at 500 μg/ear.

In assay [2] the test system is Staphylococcus aureus ATCC 6538. Description: Antibiotic activity at 128 μg/ml. The format is cell-based. The procedure:
(§1) The MIC values were determined in liquid culture medium by the technique described in the “Manual of Clinical Microbiology, 7th edition (1999), American Society for Microbiology”.

Assay [3] has as its system Streptococcus pyogenes ATCC 19615. Description: Antibiotic activity at 128 μg/ml. The class given is cell-based. The procedure:
as §1

The test system of assay [4] is accumulation of neutrophils in the rat lung induced by LPS. Description: LPS-induced pulmonary inflammation in the rat. The class given is in vivo. As to conditions: oral single dose 100, 40 and 10 μmol/kg one hour before LPS 0.4 mg/kg endotracheally; 20 h; erythromycin: single oral dose 130 μmol/kg. The procedure: The rats were given a single dose of 0.4 mg/kg of LPS (E. coli, serotype 026:6) endotracheally, by the trans-oral route. Tracheal instillation was carried out under halothane anesthesia and 20 hours after the endotracheal administration of LPS/saline solution the animals were sacrificed by urethane overdose. • Washing
The lungs were washed with four aliquots each of 5 ml of saline solution with heparin 10 IU/ml. The cellular suspension was concentrated by low-speed centrifugation and the cellular pellet was suspended. • Cell Count and Differentiation
The total cell count was obtained using a hemocytometer.
The differential count was obtained from cytospin preparations stained with May-Grunwald-Giemsa (Tamaoki J., Tagaya E., Yamawaki I., Sakai N., Nagai A., Konno K., 1995. Effect of erythromycin on endotoxin-induced microvascular leakage in the rat trachea and lungs. Am. J. Respir. Crit. Care Med., 151, 1582-8). The rats received the test compounds orally at a dose of 100, 40 and 10 μmol/kg as a single dose administered orally one hour before exposure to LPS.
The ED/50 value is the dose that caused 50% reduction in the neutrophil count in the bronchial wash fluid.
The result for erythromycin relates to oral treatment in a single dose with 130 μmol/kg.

In assay [5] the test system is Enterococcus faecalis ATCC 29212. Put plainly: Antibiotic activity, MIC in liquid culture medium. The class given is cell-based. As to conditions: ATCC29212, lowest concentration that completely inhibits visible growth, read-out: Enter. faec. ATCC 29212 MIC. The procedure: as §1
For assay [6], the system named is Streptococcus pneumoniae ATCC 49619. Description: Antibiotic activity, MIC in liquid culture medium. The format is cell-based. As to conditions: ATCC49619, lowest concentration that completely inhibits visible growth, read-out: Str. pneum. ATTC 49619 MIC. The procedure:
as §1

For assay [7], the system named is Staphylococcus aureus ATCC 29213. Description: Antibiotic activity, MIC in liquid culture medium. The class given is cell-based. The following applies: ATCC29213, lowest concentration that completely inhibits visible growth, read-out: Sta. aureus ATCC 29213 MIC. The procedure:
as §1

Setting [8] is: method a: weighing a defined portion of auricular pinna.

Molecules are shown by their SMILES. ≈ marks a conversion by molar mass, not a printed value.

This is an account of results in patent US7419961B2, “9a-azalides with anti-inflammatory activity” (Zambon S.p.A., priority 2002, dated 2008).

As for `CC[C@H]1OC(=O)[C@H](C)[C@@H](O)[C@H](C)[C@@H](O[C@@H]2O[C@H](C)C[C@H](N(C)C(C)=O)[C@H]2O)C(C)(O)C[C@@H](C)CN(C)[C@H](C)[C@@H](O)[C@]1(C)O` (stereo partly drawn) [Compound 5], the inhibition in vivo (usually the drop in the measured response relative to a control, in per cent) at 500 µg/ear in assay [1] (setting [8]) was found to be 40.5%.

With `CC[C@H]1OC(=O)[C@H](C)[C@@H](O)[C@H](C)[C@@H](O[C@@H]2O[C@H](C)C[C@H]([N+](C)(C)[O-])[C@H]2O)C(C)(O)C[C@@H](C)CN(C)[C@H](C)[C@@H](O)[C@]1(C)O` (stereo partly drawn) [Compound 1], the “Sta. aureus ATCC 6538 128 (μg/ml)” value in assay [2] is given as “not active”. In assay [3], the “Str. pyogen. ATTC 19615 128 (μg/ml)” value is “not active”. In addition, the inhibition in vivo at 500 µg/ear in assay [1] (setting [8]) came out at 56.7%. For the same compound, in assay [4], the “ED/50 (dose that caused 50% reduction in the neutrophil count in the bronchial wash fluid)” value came to 10 µmol/kg. Also, the MIC (commonly the least concentration at which growth counts as inhibited) in assay [5] was above 128 µg/mL.

For `CC[C@H]1OC(=O)[C@H](C)[C@@H](O)[C@H](C)[C@@H](O[C@@H]2O[C@H](C)C=C[C@H]2O)C(C)(O)C[C@@H](C)CN(C)[C@H](C)[C@@H](O)[C@]1(C)O` (stereo partly drawn) [Compound 3], the inhibition in vivo at 500 µg/ear in assay [1] (setting [8]) worked out at 34.4%.

As for `CC[C@H]1OC(=O)[C@H](C)[C@@H](O[C@H]2C[C@@](C)(OC)[C@@H](O)[C@H](C)O2)[C@H](C)[C@@H](O[C@@H]2O[C@H](C)C[C@H](N(C)C)[C@H]2O)[C@](C)(O)C[C@@H](C)CN(C)[C@H](C)[C@@H](O)[C@]1(C)O` [Azithromycin, reference compound], in assay [1] (setting [8]), the inhibition in vivo at 500 µg/ear was found to be 40%.

In the case of `CC[C@H]1OC(=O)[C@H](C)[C@@H](O)[C@H](C)[C@@H](O[C@@H]2O[C@H](C)C[C@H](N(C)C)[C@H]2O)C(C)(O)C[C@H](C)CN(CCCNCc2nccs2)[C@H](C)[C@@H](O)[C@]1(C)O` (stereo partly drawn) [Compound 6], the MIC in assay [6] is 8 µg/mL (≈ 10.9 µM); in assay [5] it was 64 µg/mL (≈ 87.6 µM); in assay [7], 64 µg/mL (≈ 87.6 µM).

Turning to `CC[C@H]1OC(=O)[C@H](C)[C@@H](O)[C@H](C)[C@@H](O[C@@H]2O[C@H](C)C[C@H](N(C)C)[C@H]2O)C(C)(O)C[C@@H](C)CN(CCCNCCCCCCNCc2ccccc2)[C@H](C)[C@@H](O)[C@]1(C)O` (stereo partly drawn) [Compound 12], in assay [1] (method b: auricular thickness using precision spring calipers), the inhibition in vivo at 500 µg/ear was found to be 39.5%. Moreover, the results for the minimum inhibitory concentration (MIC) in assay [6], in assay [5] and in assay [7] were 64 µg/mL (≈ 77.7 µM), above 128 µg/mL and above 128 µg/mL, respectively.

The compound `CC[C@H]1OC(=O)[C@H](C)[C@@H](O[C@H]2C[C@@](C)(OC)[C@@H](O)[C@H](C)O2)[C@H](C)[C@@H](O[C@@H]2O[C@H](C)C[C@H](N(C)C)[C@H]2O)[C@](C)(O)C[C@@H](C)C(=O)[C@H](C)[C@@H](O)[C@]1(C)O` [Erythromycin, erythromycin, reference compound] displayed an inhibition in vivo at 500 µg/ear in assay [1] (setting [8]) of 42%. Besides, the “ED/50 (dose that caused 50% reduction in the neutrophil count in the bronchial wash fluid)” value in assay [4] is on record as “not active”. Further, the MIC was 0.12 µg/mL (≈ 0.164 µM) in assay [6], 1 µg/mL (≈ 1.36 µM) in assay [5] and 0.25 µg/mL (≈ 0.341 µM) in assay [7].

Compound `CC[C@H]1OC(=O)[C@H](C)[C@@H](O)[C@H](C)[C@@H](O[C@@H]2O[C@H](C)CC[C@H]2O)C(C)(O)C[C@@H](C)CN(CCCNCCNCc2nccs2)[C@H](C)[C@@H](O)[C@]1(C)O` (stereo partly drawn) [Compound 13] registered an inhibition in vivo at 500 µg/ear in assay [1] (setting [8]) of 44.7%.

The compound `CC[C@H]1OC(=O)[C@H](C)[C@@H](O)[C@H](C)[C@@H](O[C@@H]2O[C@H](C)C[C@H](N(C)C)[C@H]2O)C(C)(O)C[C@@H](C)CN(CCCNCc2c[nH]cn2)[C@H](C)[C@@H](O)[C@]1(C)O` (stereo partly drawn) [Compound 8] returned an inhibition in vivo at 500 µg/ear in assay [1] (setting [8]) of 29.7%.

With `CC[C@H]1OC(=O)[C@H](C)[C@@H](O)[C@H](C)[C@@H](O[C@@H]2O[C@H](C)CC[C@H]2O)C(C)(O)C[C@@H](C)CN(C)[C@H](C)[C@@H](O)[C@]1(C)O` (stereo partly drawn) [Compound 4], in assay [1] (setting [8]), the inhibition in vivo at 500 µg/ear came to 16.5%.

In assay [1] (setting [8]), `CC[C@H]1OC(=O)[C@H](C)[C@@H](O)[C@H](C)[C@@H](O[C@@H]2O[C@H](C)C[C@H]([N+](C)(C)[O-])[C@H]2O)C(C)(O)C[C@@H](C)C[N+](C)([O-])[C@H](C)[C@@H](O)[C@]1(C)O` (stereo partly drawn) [Compound 2] yielded an inhibition in vivo at 500 µg/ear of 25.3%.
